Results: ChEMBL document CHEMBL1909046, “DrugMatrix in vitro pharmacology data”

Target: Beta-1 adrenergic receptor (Homo sapiens, UniProt P08588)
Assay: DRUGMATRIX: Adrenergic beta1 radioligand binding (ligand: [125I] Cyanopindolol)
Format: cell membranes, CHO-K1, Membrane
Conditions: Not Active = under 50% inhibition at 10 µM; read-out: IC50

Chain of Beta-1 adrenergic receptor (P08588 whole entry): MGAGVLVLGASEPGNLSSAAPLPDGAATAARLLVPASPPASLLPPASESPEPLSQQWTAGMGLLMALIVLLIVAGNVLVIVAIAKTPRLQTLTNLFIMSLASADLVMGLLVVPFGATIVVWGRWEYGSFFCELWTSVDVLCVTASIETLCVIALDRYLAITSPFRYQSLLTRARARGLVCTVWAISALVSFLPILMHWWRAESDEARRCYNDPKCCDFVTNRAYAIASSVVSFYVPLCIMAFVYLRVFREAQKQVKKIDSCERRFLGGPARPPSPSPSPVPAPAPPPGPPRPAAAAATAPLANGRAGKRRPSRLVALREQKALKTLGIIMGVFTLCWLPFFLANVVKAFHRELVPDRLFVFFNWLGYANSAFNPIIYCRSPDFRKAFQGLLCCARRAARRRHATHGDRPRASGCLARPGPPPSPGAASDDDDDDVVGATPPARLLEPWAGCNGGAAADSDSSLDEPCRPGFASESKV

Compound	IC50 [nM]
CN1C[C@H](C(=O)N[C@]2(C)O[C@@]3(O)[C@@H]4CCCN4C(=O)[C@H](Cc4ccccc4)N3C2=O)C=C2c3cccc4[nH]cc(c34)C[C@H]21 [ERGOTAMINE]	4140

Same assay, conditions: Not Active = under 50% inhibition at 10 µM; read-out: Ki

Compound	Ki [nM]
CN1C[C@H](C(=O)N[C@]2(C)O[C@@]3(O)[C@@H]4CCCN4C(=O)[C@H](Cc4ccccc4)N3C2=O)C=C2c3cccc4[nH]cc(c34)C[C@H]21 [ERGOTAMINE]	2390

Same assay, conditions: cho-k1; Not Active = under 50% inhibition at 10 µM

Compound	IC50	Ki
CARBOPLATIN	Not Active	Not Active

Test system: not listed separately
Assay: DRUGMATRIX: beta-Lactamase enzyme inhibition (substrate: Nitrocefin)
Design: species or system Bacillus cereus
Conditions: Not Active = under 50% inhibition at 10 µM

Compound	IC50	Ki
CARBOPLATIN	Not Active	Not Active
CN1C[C@H](C(=O)N[C@]2(C)O[C@@]3(O)[C@@H]4CCCN4C(=O)[C@H](Cc4ccccc4)N3C2=O)C=C2c3cccc4[nH]cc(c34)C[C@H]21 [ERGOTAMINE]	Not Active	Not Active

Target: T1, 5-hydroxytryptamine receptor 2C (Homo sapiens, UniProt P28335)
T1 sequence (P28335 whole entry): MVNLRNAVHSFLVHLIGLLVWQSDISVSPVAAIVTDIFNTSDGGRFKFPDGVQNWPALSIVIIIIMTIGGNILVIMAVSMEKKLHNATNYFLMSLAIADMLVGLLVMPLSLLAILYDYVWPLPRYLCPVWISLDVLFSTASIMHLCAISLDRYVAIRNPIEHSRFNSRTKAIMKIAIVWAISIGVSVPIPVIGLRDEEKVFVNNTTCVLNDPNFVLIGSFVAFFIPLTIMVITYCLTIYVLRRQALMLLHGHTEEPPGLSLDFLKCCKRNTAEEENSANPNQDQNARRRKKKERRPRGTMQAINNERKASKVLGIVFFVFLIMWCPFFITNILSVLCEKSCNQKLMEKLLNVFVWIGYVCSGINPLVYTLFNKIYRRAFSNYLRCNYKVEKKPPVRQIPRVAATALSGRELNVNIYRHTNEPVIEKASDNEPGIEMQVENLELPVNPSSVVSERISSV
Assay: DRUGMATRIX: Serotonin (5-Hydroxytryptamine) 5-HT2C radioligand binding (ligand: [3H] Mesulergine)
Format: cell membranes, CHO-K1, Membrane
Conditions: Not Active = under 50% inhibition at 10 µM; read-out: IC50

Compound	IC50 [nM]
CN1C[C@H](C(=O)N[C@]2(C)O[C@@]3(O)[C@@H]4CCCN4C(=O)[C@H](Cc4ccccc4)N3C2=O)C=C2c3cccc4[nH]cc(c34)C[C@H]21 [ERGOTAMINE]	56

Same assay, conditions: Not Active = under 50% inhibition at 10 µM; read-out: Ki

Compound	Ki [nM]
CN1C[C@H](C(=O)N[C@]2(C)O[C@@]3(O)[C@@H]4CCCN4C(=O)[C@H](Cc4ccccc4)N3C2=O)C=C2c3cccc4[nH]cc(c34)C[C@H]21 [ERGOTAMINE]	29

Same assay, conditions: cho-k1; Not Active = under 50% inhibition at 10 µM

Compound	IC50	Ki
CARBOPLATIN	Not Active	Not Active

Test system: not listed separately
Assay: DRUGMATRIX: Sigma2 radioligand binding (ligand: [3H] Ifenprodil)
Format: cell membranes, Rattus norvegicus, Wistar, Brain, Membrane
Conditions: Not Active = under 50% inhibition at 10 µM

Compound	IC50	Ki
CARBOPLATIN	Not Active	Not Active
CN1C[C@H](C(=O)N[C@]2(C)O[C@@]3(O)[C@@H]4CCCN4C(=O)[C@H](Cc4ccccc4)N3C2=O)C=C2c3cccc4[nH]cc(c34)C[C@H]21 [ERGOTAMINE]	Not Active	Not Active

Target: T2, D(4) dopamine receptor (Homo sapiens, UniProt P21917)
T2 sequence (P21917 whole entry): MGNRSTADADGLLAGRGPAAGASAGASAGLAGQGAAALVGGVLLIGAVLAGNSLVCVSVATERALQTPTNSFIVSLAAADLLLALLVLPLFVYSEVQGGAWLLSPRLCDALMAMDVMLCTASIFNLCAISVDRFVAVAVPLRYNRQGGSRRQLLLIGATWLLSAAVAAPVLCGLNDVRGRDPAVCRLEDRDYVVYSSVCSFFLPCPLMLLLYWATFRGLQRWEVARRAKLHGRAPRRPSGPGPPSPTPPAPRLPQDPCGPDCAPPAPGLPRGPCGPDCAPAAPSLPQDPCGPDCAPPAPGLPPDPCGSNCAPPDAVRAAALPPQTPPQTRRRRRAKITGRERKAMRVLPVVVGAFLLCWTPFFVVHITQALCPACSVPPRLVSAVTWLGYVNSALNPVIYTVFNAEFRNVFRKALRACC
Assay: DRUGMATRIX: Dopamine D4.2 radioligand binding (ligand: [3H] Spiperone)
Format: cell membranes, CHO-K1, Membrane
Conditions: cho-k1; Not Active = under 50% inhibition at 10 µM

Compound	IC50	Ki
CARBOPLATIN	Not Active	Not Active
CN1C[C@H](C(=O)N[C@]2(C)O[C@@]3(O)[C@@H]4CCCN4C(=O)[C@H](Cc4ccccc4)N3C2=O)C=C2c3cccc4[nH]cc(c34)C[C@H]21 [ERGOTAMINE]	Not Active	–

Test system: not listed separately
Assay: DRUGMATRIX: Leukotriene, BLT (LTB4) radioligand binding (ligand: [3H]LTB4)
Format: cell membranes, Membrane
Conditions: u-937; Not Active = under 50% inhibition at 10 µM

Compound	IC50	Ki
CARBOPLATIN	Not Active	Not Active
CN1C[C@H](C(=O)N[C@]2(C)O[C@@]3(O)[C@@H]4CCCN4C(=O)[C@H](Cc4ccccc4)N3C2=O)C=C2c3cccc4[nH]cc(c34)C[C@H]21 [ERGOTAMINE]	Not Active	Not Active

Target: T3, Cysteinyl leukotriene receptor 1 (Homo sapiens, UniProt Q9Y271); further: in other assays of this panel Not Active means under 50% inhibition at 10 µM
T3 sequence (Q9Y271 whole entry): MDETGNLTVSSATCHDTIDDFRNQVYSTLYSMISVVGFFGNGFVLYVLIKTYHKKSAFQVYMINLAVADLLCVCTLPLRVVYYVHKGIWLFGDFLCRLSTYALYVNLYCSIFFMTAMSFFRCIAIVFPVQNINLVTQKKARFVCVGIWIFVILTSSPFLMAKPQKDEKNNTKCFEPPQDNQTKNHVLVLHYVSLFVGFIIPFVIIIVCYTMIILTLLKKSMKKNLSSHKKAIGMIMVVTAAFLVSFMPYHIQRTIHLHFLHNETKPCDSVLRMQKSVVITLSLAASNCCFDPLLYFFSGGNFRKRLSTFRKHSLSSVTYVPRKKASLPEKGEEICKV
Assay: not given
Format: cell membranes, CHO-K1, Membrane
Conditions: cho-k1

Compound	IC50	Ki
CARBOPLATIN	Not Active	Not Active
CN1C[C@H](C(=O)N[C@]2(C)O[C@@]3(O)[C@@H]4CCCN4C(=O)[C@H](Cc4ccccc4)N3C2=O)C=C2c3cccc4[nH]cc(c34)C[C@H]21 [ERGOTAMINE]	Not Active	–

Target: Melanocortin receptor 4 (Homo sapiens, UniProt P32245); further: in other assays of this panel Not Active means under 50% inhibition at 10 µM
Sequence (P32245 whole entry): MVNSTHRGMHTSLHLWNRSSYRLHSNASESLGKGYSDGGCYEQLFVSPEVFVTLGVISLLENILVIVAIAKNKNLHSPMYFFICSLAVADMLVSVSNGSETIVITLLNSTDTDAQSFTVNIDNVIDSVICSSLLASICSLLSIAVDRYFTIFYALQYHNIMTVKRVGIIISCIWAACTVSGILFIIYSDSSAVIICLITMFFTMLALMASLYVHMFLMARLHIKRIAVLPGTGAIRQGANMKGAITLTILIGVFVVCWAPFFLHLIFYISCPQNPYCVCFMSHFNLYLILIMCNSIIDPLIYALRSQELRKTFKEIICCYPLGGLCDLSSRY
Assay: not given
Format: cell membranes, Membrane
Conditions: hek293

Compound	IC50	Ki
CARBOPLATIN	Not Active	Not Active
CN1C[C@H](C(=O)N[C@]2(C)O[C@@]3(O)[C@@H]4CCCN4C(=O)[C@H](Cc4ccccc4)N3C2=O)C=C2c3cccc4[nH]cc(c34)C[C@H]21 [ERGOTAMINE]	Not Active	–

Target: Melanocortin receptor 5 (Homo sapiens, UniProt P33032); further: in other assays of this panel Not Active means under 50% inhibition at 10 µM
Sequence (P33032 whole entry): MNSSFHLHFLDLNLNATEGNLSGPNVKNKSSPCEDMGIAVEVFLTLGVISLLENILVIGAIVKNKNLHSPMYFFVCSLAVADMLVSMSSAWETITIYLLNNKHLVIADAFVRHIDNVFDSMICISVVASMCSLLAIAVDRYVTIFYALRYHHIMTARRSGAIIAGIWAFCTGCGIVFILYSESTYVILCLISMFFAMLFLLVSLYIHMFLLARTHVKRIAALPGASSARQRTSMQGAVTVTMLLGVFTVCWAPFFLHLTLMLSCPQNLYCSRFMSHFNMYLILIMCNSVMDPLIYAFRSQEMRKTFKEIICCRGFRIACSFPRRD
Assay: not given
Format: cell membranes, HEK293, Membrane
Conditions: hek293

Compound	IC50	Ki
CARBOPLATIN	Not Active	Not Active
CN1C[C@H](C(=O)N[C@]2(C)O[C@@]3(O)[C@@H]4CCCN4C(=O)[C@H](Cc4ccccc4)N3C2=O)C=C2c3cccc4[nH]cc(c34)C[C@H]21 [ERGOTAMINE]	Not Active	–

Target: T4, Caspase-1 (Homo sapiens, UniProt P29466);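 further: Caspase-1 enzyme inhibition assay with a peptide substrate; in other assays of this panel Not Active means under 50% inhibition at 10 µM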
T4 sequence (P29466 whole entry): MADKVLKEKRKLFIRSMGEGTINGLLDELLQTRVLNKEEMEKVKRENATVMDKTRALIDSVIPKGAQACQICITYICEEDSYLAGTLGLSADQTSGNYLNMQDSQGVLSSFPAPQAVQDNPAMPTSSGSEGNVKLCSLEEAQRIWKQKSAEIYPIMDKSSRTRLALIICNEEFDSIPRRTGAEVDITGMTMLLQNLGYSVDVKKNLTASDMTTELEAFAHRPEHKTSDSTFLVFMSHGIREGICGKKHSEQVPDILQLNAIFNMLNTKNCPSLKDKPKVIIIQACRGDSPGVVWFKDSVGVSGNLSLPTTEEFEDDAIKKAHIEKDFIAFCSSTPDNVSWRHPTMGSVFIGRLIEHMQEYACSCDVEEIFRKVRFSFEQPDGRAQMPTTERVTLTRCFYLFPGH
Assay: not given
Design: species or system Escherichia coli
Conditions: not given

Compound	IC50	Ki
CARBOPLATIN	Not Active	Not Active
CN1C[C@H](C(=O)N[C@]2(C)O[C@@]3(O)[C@@H]4CCCN4C(=O)[C@H](Cc4ccccc4)N3C2=O)C=C2c3cccc4[nH]cc(c34)C[C@H]21 [ERGOTAMINE]	Not Active	–

Target: T5, Cathepsin G (Homo sapiens, UniProt P08311)
T5 sequence (P08311 whole entry): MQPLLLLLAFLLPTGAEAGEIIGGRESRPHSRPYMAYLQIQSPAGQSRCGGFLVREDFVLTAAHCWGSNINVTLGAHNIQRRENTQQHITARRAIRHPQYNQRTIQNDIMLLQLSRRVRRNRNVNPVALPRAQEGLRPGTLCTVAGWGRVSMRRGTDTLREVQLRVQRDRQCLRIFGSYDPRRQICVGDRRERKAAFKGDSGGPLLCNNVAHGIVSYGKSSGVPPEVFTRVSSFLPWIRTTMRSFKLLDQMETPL
Assay: not given
Format: tissue-based
Conditions: neutrophil

Compound	IC50	Ki
CARBOPLATIN	Not Active	Not Active
CN1C[C@H](C(=O)N[C@]2(C)O[C@@]3(O)[C@@H]4CCCN4C(=O)[C@H](Cc4ccccc4)N3C2=O)C=C2c3cccc4[nH]cc(c34)C[C@H]21 [ERGOTAMINE]	Not Active	–

Target: Epidermal growth factor receptor (Homo sapiens, UniProt P00533)
Assay: DRUGMATRIX: Protein Tyrosine Kinase, EGF Receptor enzyme inhibition (substrate: Poly(Glu:Tyr))
Format: cell-based, Insect cells
Conditions: insect cells; Not Active = under 50% inhibition at 10 µM

Compound	IC50	Ki
CARBOPLATIN	Not Active	Not Active
CN1C[C@H](C(=O)N[C@]2(C)O[C@@]3(O)[C@@H]4CCCN4C(=O)[C@H](Cc4ccccc4)N3C2=O)C=C2c3cccc4[nH]cc(c34)C[C@H]21 [ERGOTAMINE]	Not Active	–

Target: Tyrosine-protein kinase Fyn (Homo sapiens, UniProt P06241)
Sequence (P06241 whole entry): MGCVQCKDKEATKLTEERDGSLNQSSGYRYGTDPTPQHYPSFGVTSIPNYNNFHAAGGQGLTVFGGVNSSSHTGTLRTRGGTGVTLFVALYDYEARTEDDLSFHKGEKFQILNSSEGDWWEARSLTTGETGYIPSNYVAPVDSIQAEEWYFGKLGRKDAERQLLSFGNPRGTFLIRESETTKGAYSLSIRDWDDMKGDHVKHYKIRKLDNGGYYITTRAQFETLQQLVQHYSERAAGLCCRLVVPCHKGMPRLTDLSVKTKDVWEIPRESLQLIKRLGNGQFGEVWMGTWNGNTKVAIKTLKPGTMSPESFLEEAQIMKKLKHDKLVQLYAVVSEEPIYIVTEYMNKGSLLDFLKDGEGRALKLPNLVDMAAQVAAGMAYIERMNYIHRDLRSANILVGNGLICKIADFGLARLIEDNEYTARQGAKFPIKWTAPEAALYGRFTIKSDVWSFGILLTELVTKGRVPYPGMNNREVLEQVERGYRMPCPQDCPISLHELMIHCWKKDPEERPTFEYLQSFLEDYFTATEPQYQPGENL
Assay: biochemical
Format: cell-based, Insect cells
Conditions: insect cells

Compound	IC50	Ki
CARBOPLATIN	Not Active	Not Active

Same assay, conditions: read-out: IC50

Compound	IC50 [nM]
CN1C[C@H](C(=O)N[C@]2(C)O[C@@]3(O)[C@@H]4CCCN4C(=O)[C@H](Cc4ccccc4)N3C2=O)C=C2c3cccc4[nH]cc(c34)C[C@H]21 [ERGOTAMINE]	3160

Test system: not listed separately
Assay: DRUGMATRIX: Purinergic P2X radioligand binding (ligand: [3H] alpha, beta-Methylene-ATP)
Format: cell membranes, Oryctolagus cuniculus, New Zealand albino, Urinary bladder, Membrane
Conditions: Not Active = under 50% inhibition at 10 µM

Compound	IC50	Ki
CARBOPLATIN	Not Active	Not Active
CN1C[C@H](C(=O)N[C@]2(C)O[C@@]3(O)[C@@H]4CCCN4C(=O)[C@H](Cc4ccccc4)N3C2=O)C=C2c3cccc4[nH]cc(c34)C[C@H]21 [ERGOTAMINE]	Not Active	Not Active

Target: 5-hydroxytryptamine receptor 1B (Rattus norvegicus, UniProt P28564); further: in other assays of this panel Not Active means under 50% inhibition at 10 µM
Sequence (P28564 whole entry): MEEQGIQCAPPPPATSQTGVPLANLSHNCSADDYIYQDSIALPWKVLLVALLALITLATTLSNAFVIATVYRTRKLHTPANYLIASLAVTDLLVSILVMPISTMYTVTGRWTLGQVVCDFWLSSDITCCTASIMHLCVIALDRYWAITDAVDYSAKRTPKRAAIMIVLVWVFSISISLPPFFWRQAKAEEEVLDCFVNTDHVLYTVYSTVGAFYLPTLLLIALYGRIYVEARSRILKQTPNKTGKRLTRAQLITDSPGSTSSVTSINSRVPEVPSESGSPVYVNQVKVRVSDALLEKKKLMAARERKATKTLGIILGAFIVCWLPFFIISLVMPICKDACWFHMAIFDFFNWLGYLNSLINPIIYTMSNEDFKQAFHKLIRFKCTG
Assay: not given
Format: cell membranes, Wistar, Cerebral cortex, Membrane
Conditions: not given

Compound	IC50	Ki
CARBOPLATIN	Not Active	Not Active

Same assay, conditions: read-out: IC50

Compound	IC50 [nM]
CN1C[C@H](C(=O)N[C@]2(C)O[C@@]3(O)[C@@H]4CCCN4C(=O)[C@H](Cc4ccccc4)N3C2=O)C=C2c3cccc4[nH]cc(c34)C[C@H]21 [ERGOTAMINE]	0.201

Same assay, conditions: read-out: Ki

Compound	Ki [nM]
CN1C[C@H](C(=O)N[C@]2(C)O[C@@]3(O)[C@@H]4CCCN4C(=O)[C@H](Cc4ccccc4)N3C2=O)C=C2c3cccc4[nH]cc(c34)C[C@H]21 [ERGOTAMINE]	0.091
